Measured values taken from patent publication US8802597B2, “Herbicidal pyrimidines” (E I du Pont de Nemours and Company, priority 2003, dated 2014).

Legend:
Format in all cases: in vivo
[1] = system: chickweed (Stellaria media); assay: Test C postemergence; details: for Plant response rating, Chickweed: scale 0 to 100
Procedure, shortened: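 Percent control is a visual rating (0 none, 100 complete) taken against untreated plants after 12 to 14 days of greenhouse growth. Applications were made preemergence to seeded pots and postemergence to plants at the 1- to 4-leaf stage, in a non-phytotoxic surfactant-containing solvent.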

[2] = system: bermudagrass (Cynodon dactylon); assay: Test C pre/postemergence
From the text: (§1) Seeds or nutlets of plant species selected from bermudagrass (Cynodon dactylon), Surinam grass (Brachiaria decumbens), cocklebur (Xanthium strumarium), corn (Zea mays), crabgrass (Digitaria sanguinalis), woolly cupgrass (Eriochloa villosa), giant foxtail (Setaria faberii), goosegrass (Eleusine indica), johnsongrass (Sorghum halepense), kochia (Kochia scoparia), lambsquarters (Chenopodium album), morningglory (Ipomoea coccinea), eastern black nightshade (Solanum ptycanthum), yellow nutsedge (Cyperus esculentus), pigweed (Amaranthus retroflexus), common ragweed (Ambrosia elatior), soybean (Glycine max), common (oilseed) sunflower (Helianthus annuus), and velvetleaf (Abutilon theophrasti) were planted and treated preemergence with test chemicals formulated in a non-phytotoxic solvent mixture which included a surfactant.
(§2) At the same time, plants selected from these crop and weed species and also winter barley (Hordeum vulgare), blackgrass (Alopecurus myosuroides), canarygrass (Phalaris minor), chickweed (Stellaria media), downy brome (Bromus tectorum), green foxtail (Setaria viridis), Italian ryegrass (Lolium multiflorum), wheat (Triticum aestivum), wild oat (Avena fatua) and windgrass (Apera spica-venti) were treated with postemergence applications of some of the test chemicals formulated in the same manner. Plants ranged in height from 2 to 18 cm (1- to 4-leaf stage) for postemergence treatments. Plant species in the flooded paddy test consisted of rice (Oryza sativa), umbrella sedge (Cyperus difformis), duck salad (Heteranthera limosa) and barnyardgrass (Echinochloa crus-galli) grown to the 2-leaf stage for testing. Treated plants and controls were maintained in a greenhouse for 12 to 14 days, after which time all species were compared to controls and visually evaluated. Plant response ratings, summarized in Table C, are based on a scale of 0 to 100 where 0 is no effect and 100 is complete control. A dash (-) response means no test result.

soybean (Glycine max) = assay: Test C pre/postemergence
From the text: as §1, §2

[3] = system: lambsquarters (Chenopodium album); assay: Test C pre/postemergence
From the text: as §1, §2

[4] = system: johnsongrass (Sorghum halepense); assay: Test C pre/postemergence
From the text: as §1, §2

[5] = 62 g ai/ha, scale 0 to 100 (0 no effect, 100 complete control)
[6] = 125 g ai/ha, scale 0 to 100 (0 no effect, 100 complete control)
[7] = Postemergence, 62 g ai/ha, scale 0 to 100 (0 no effect, 100 complete control)
[8] = Postemergence, 125 g ai/ha, scale 0 to 100 (0 no effect, 100 complete control)
[9] = Postemergence, 250 g ai/ha, scale 0 to 100
[10] = Postemergence, 500 g ai/ha, scale 0 to 100
[11] = Preemergence, 16 g ai/ha, scale 0 to 100, 0 no effect, 100 complete control
[12] = Preemergence, 31 g ai/ha, scale 0 to 100, 0 no effect, 100 complete control
[13] = Preemergence, 62 g ai/ha, scale 0 to 100, 0 no effect, 100 complete control
[14] = Preemergence, 125 g ai/ha, scale 0 to 100
[15] = Preemergence, 250 g ai/ha, scale 0 to 100
[16] = Preemergence, 500 g ai/ha, scale 0 to 100

CCOC(=O)c1nc(-c2ccc(Cl)cc2)nc(N)c1Br [Compound 37]
Chickweed plant response rating [1, 5]: 0 | Chickweed plant response rating [1, 6]: 0 | Plant response rating, Chickweed ([1]; 250 g ai/ha): 0 | Plant response rating, Chickweed ([1]; 500 g ai/ha): 0 | Bermudagrass plant response rating [2, 7]: 0 | Bermudagrass plant response rating [2, 8]: 0 | Plant response rating, Bermudagrass [2, 9]: 0 | Plant response rating, Bermudagrass [2, 10]: 20 | Soybean plant response rating (soybean (Glycine max); [7]): 20 | Soybean plant response rating (soybean (Glycine max); [8]): 85 | Plant response rating, Soybean (soybean (Glycine max); [9]): 95 | Plant response rating, Soybean (soybean (Glycine max); [10]): 100 | Lambsquarters plant response rating [3, 7]: 0 | Lambsquarters plant response rating [3, 8]: 95 | Plant response rating, Lambsquarters [3, 9]: 95 | Plant response rating, Lambsquarters [3, 10]: 95 | Johnsongrass plant response rating [4, 7]: 0 | Johnsongrass plant response rating [4, 8]: 20 | Plant response rating, Johnsongrass [4, 10]: 55

CCOC(=O)c1nc(C2CC2)nc(NN)c1Br [Compound 42]
pest or weed control at 31 g/ha ([1]; Stellaria media, post-emergence, 31 g ai/ha, read-out: Plant response rating (scale of 0 to 100), Chickweed): 0% | pest or weed control at 62 g/ha ([1]; Stellaria media, post-emergence, 62 g ai/ha, scale 0 to 100 (0 no effect, 100 complete control), read-out: Chickweed plant response rating): 0% | pest or weed control at 125 g/ha ([1]; Stellaria media, post-emergence, 125 g ai/ha, scale 0 to 100 (0 no effect, 100 complete control), read-out: Chickweed plant response rating): 0% | pest or weed control at 250 g/ha ([1]; Stellaria media, post-emergence, 250 g ai/ha, scale 0 to 100, read-out: Plant response rating, Chickweed): 10% | pest or weed control at 31 g/ha ([2]; Cynodon dactylon, post-emergence, Postemergence, 31 g ai/ha, read-out: Plant response rating (scale of 0 to 100), Bermudagrass): 0% | pest or weed control at 62 g/ha ([2]; Cynodon dactylon, post-emergence, Postemergence, 62 g ai/ha, scale 0 to 100 (0 no effect, 100 complete control), read-out: Bermudagrass plant response rating): 0% | pest or weed control at 125 g/ha ([2]; Cynodon dactylon, post-emergence, Postemergence, 125 g ai/ha, scale 0 to 100 (0 no effect, 100 complete control), read-out: Bermudagrass plant response rating): 0% | pest or weed control at 250 g/ha ([2]; Cynodon dactylon, post-emergence, Postemergence, 250 g ai/ha, scale 0 to 100, read-out: Plant response rating, Bermudagrass): 5% | plant injury at 31 g/ha (soybean (Glycine max); Glycine max, post-emergence, Postemergence, 31 g ai/ha, read-out: Plant response rating (scale of 0 to 100), Soybean): 10% | plant injury at 62 g/ha (soybean (Glycine max); Glycine max, post-emergence, Postemergence, 62 g ai/ha, scale 0 to 100 (0 no effect, 100 complete control), read-out: Soybean plant response rating): 30% | plant injury at 125 g/ha (soybean (Glycine max); Glycine max, post-emergence, Postemergence, 125 g ai/ha, scale 0 to 100 (0 no effect, 100 complete control), read-out: Soybean plant response rating): 40% | plant injury at 250 g/ha (soybean (Glycine max); Glycine max, post-emergence, Postemergence, 250 g ai/ha, scale 0 to 100, read-out: Plant response rating, Soybean): 70% | pest or weed control at 31 g/ha ([3]; Chenopodium album, post-emergence, Postemergence, 31 g ai/ha, read-out: Plant response rating (scale of 0 to 100), Lambsquarters): 10% | pest or weed control at 62 g/ha ([3]; Chenopodium album, post-emergence, Postemergence, 62 g ai/ha, scale 0 to 100 (0 no effect, 100 complete control), read-out: Lambsquarters plant response rating): 20% | pest or weed control at 125 g/ha ([3]; Chenopodium album, post-emergence, Postemergence, 125 g ai/ha, scale 0 to 100 (0 no effect, 100 complete control), read-out: Lambsquarters plant response rating): 20% | pest or weed control at 250 g/ha ([3]; Chenopodium album, post-emergence, Postemergence, 250 g ai/ha, scale 0 to 100, read-out: Plant response rating, Lambsquarters): 25% | pest or weed control at 31 g/ha ([4]; Sorghum halepense, post-emergence, Postemergence, 31 g ai/ha, read-out: Plant response rating (scale of 0 to 100), Johnsongrass): 0% | pest or weed control at 62 g/ha ([4]; Sorghum halepense, post-emergence, Postemergence, 62 g ai/ha, scale 0 to 100 (0 no effect, 100 complete control), read-out: Johnsongrass plant response rating): 0% | pest or weed control at 125 g/ha ([4]; Sorghum halepense, post-emergence, Postemergence, 125 g ai/ha, scale 0 to 100 (0 no effect, 100 complete control), read-out: Johnsongrass plant response rating): 0% | pest or weed control at 250 g/ha ([4]; Sorghum halepense, post-emergence, Postemergence, 250 g ai/ha, scale 0 to 100, read-out: Plant response rating, Johnsongrass): 10%

CCOC(=O)C(OC(C)=O)c1nc(C2CC2)nc(N)c1Br (stereo not shown) [Compound 47]
Plant response rating (scale of 0 to 100), Chickweed ([1]; 16 g ai/ha): 0 | Plant response rating (scale of 0 to 100), Chickweed ([1]; 31 g ai/ha): 0 | Chickweed plant response rating [1, 5]: 0 | Chickweed plant response rating [1, 6]: 0 | Plant response rating (scale of 0 to 100), Bermudagrass ([2]; Postemergence, 16 g ai/ha): 0 | Plant response rating (scale of 0 to 100), Bermudagrass ([2]; Postemergence, 31 g ai/ha): 0 | Bermudagrass plant response rating [2, 7]: 0 | Bermudagrass plant response rating [2, 8]: 15 | Plant response rating, Bermudagrass [2, 11]: 0 | Plant response rating, Bermudagrass [2, 12]: 0 | Plant response rating, Bermudagrass [2, 13]: 0 | Plant response rating, Bermudagrass [2, 14]: 95 | Plant response rating (scale of 0 to 100), Soybean (soybean (Glycine max); Postemergence, 16 g ai/ha): 20 | Plant response rating (scale of 0 to 100), Soybean (soybean (Glycine max); Postemergence, 31 g ai/ha): 40 | Soybean plant response rating (soybean (Glycine max); [7]): 65 | Soybean plant response rating (soybean (Glycine max); [8]): 75 | Plant response rating, Soybean (soybean (Glycine max); [11]): 0 | Plant response rating, Soybean (soybean (Glycine max); [12]): 0 | Plant response rating, Soybean (soybean (Glycine max); [13]): 0 | Plant response rating, Soybean (soybean (Glycine max); [14]): 0 | Plant response rating (scale of 0 to 100), Lambsquarters ([3]; Postemergence, 16 g ai/ha): 0 | Plant response rating (scale of 0 to 100), Lambsquarters ([3]; Postemergence, 31 g ai/ha): 45 | Lambsquarters plant response rating [3, 7]: 70 | Lambsquarters plant response rating [3, 8]: 80 | Plant response rating, Lambsquarters [3, 11]: 0 | Plant response rating, Lambsquarters [3, 13]: 85 | Plant response rating, Lambsquarters [3, 14]: 95 | Johnsongrass plant response rating [4, 7]: 0 | Johnsongrass plant response rating [4, 8]: 0 | Plant response rating, Johnsongrass [4, 11]: 0 | Plant response rating, Johnsongrass [4, 12]: 0 | Plant response rating, Johnsongrass [4, 13]: 0 | Plant response rating, Johnsongrass [4, 14]: 0

CNN=Cc1nc(C2CC2)nc(N)c1Br [Compound 49]
Chickweed plant response rating [1, 5]: 0 | Chickweed plant response rating [1, 6]: 0 | Plant response rating, Chickweed ([1]; 250 g ai/ha): 40 | Plant response rating, Chickweed ([1]; 500 g ai/ha): 45 | Bermudagrass plant response rating [2, 7]: 0 | Bermudagrass plant response rating [2, 8]: 55 | Plant response rating, Bermudagrass [2, 9]: 55 | Plant response rating, Bermudagrass [2, 10]: 65 | Plant response rating, Bermudagrass [2, 13]: 0 | Plant response rating, Bermudagrass [2, 14]: 0 | Plant response rating, Bermudagrass [2, 15]: 85 | Plant response rating, Bermudagrass [2, 16]: 95 | Soybean plant response rating (soybean (Glycine max); [7]): 95 | Soybean plant response rating (soybean (Glycine max); [8]): 95 | Plant response rating, Soybean (soybean (Glycine max); [9]): 95 | Plant response rating, Soybean (soybean (Glycine max); [10]): 100 | Plant response rating, Soybean (soybean (Glycine max); [13]): 0 | Plant response rating, Soybean (soybean (Glycine max); [14]): 70 | Plant response rating, Soybean (soybean (Glycine max); [15]): 90 | Plant response rating, Soybean (soybean (Glycine max); [16]): 90 | Lambsquarters plant response rating [3, 7]: 70 | Lambsquarters plant response rating [3, 8]: 90 | Plant response rating, Lambsquarters [3, 9]: 95 | Plant response rating, Lambsquarters [3, 10]: 95 | Plant response rating, Lambsquarters [3, 13]: 100 | Plant response rating, Lambsquarters [3, 14]: 100 | Plant response rating, Lambsquarters [3, 15]: 100 | Plant response rating, Lambsquarters [3, 16]: 100 | Johnsongrass plant response rating [4, 8]: 20 | Plant response rating, Johnsongrass [4, 9]: 35 | Plant response rating, Johnsongrass [4, 10]: 70 | Plant response rating, Johnsongrass [4, 13]: 45 | Plant response rating, Johnsongrass [4, 14]: 65 | Plant response rating, Johnsongrass [4, 15]: 80 | Plant response rating, Johnsongrass [4, 16]: 85

CN(C)N=Cc1nc(C2CC2)nc(N)c1Br [Compound 50]
Chickweed plant response rating [1, 5]: 0 | Chickweed plant response rating [1, 6]: 0 | Plant response rating, Chickweed ([1]; 500 g ai/ha): 20 | Bermudagrass plant response rating [2, 7]: 50 | Bermudagrass plant response rating [2, 8]: 75 | Plant response rating, Bermudagrass [2, 9]: 90 | Plant response rating, Bermudagrass [2, 10]: 95 | Plant response rating, Bermudagrass [2, 14]: 0 | Plant response rating, Bermudagrass [2, 15]: 0 | Plant response rating, Bermudagrass [2, 16]: 95 | Soybean plant response rating (soybean (Glycine max); [7]): 95 | Soybean plant response rating (soybean (Glycine max); [8]): 95 | Plant response rating, Soybean (soybean (Glycine max); [9]): 100 | Plant response rating, Soybean (soybean (Glycine max); [10]): 100 | Plant response rating, Soybean (soybean (Glycine max); [13]): 0 | Plant response rating, Soybean (soybean (Glycine max); [14]): 60 | Plant response rating, Soybean (soybean (Glycine max); [15]): 75 | Plant response rating, Soybean (soybean (Glycine max); [16]): 90 | Lambsquarters plant response rating [3, 7]: 70 | Lambsquarters plant response rating [3, 8]: 75 | Plant response rating, Lambsquarters [3, 9]: 80 | Plant response rating, Lambsquarters [3, 10]: 85 | Plant response rating, Lambsquarters [3, 13]: 95 | Plant response rating, Lambsquarters [3, 14]: 100 | Plant response rating, Lambsquarters [3, 15]: 100 | Plant response rating, Lambsquarters [3, 16]: 100 | Johnsongrass plant response rating [4, 7]: 0 | Plant response rating, Johnsongrass [4, 10]: 60 | Plant response rating, Johnsongrass [4, 13]: 0 | Plant response rating, Johnsongrass [4, 14]: 55 | Plant response rating, Johnsongrass [4, 15]: 65 | Plant response rating, Johnsongrass [4, 16]: 85
